Test results from patent US20040253647A1, “Cell-based high-throughput screening methods” (priority 2001, published 2004).
Peptide text beside a SMILES is read from it. * marks the point of attachment. Cbz = O=C(OCc1ccccc1)*

What was measured:
Format in all cases: cell-based, murine
[1] = tested on: βCTF levels in L/APP cells (L cell line overexpressing human APP695); assay: βCTF ELISA (C1/6.1 capture, JRF/AβN/25 detection) on cell lysates; details: for βCTF levels: control 2.7 (FIG. 8A); for reduction of βCTF levels relative to control: 10 μg/ml for 6 hours (FIG. 10B)
Experimental: (§1) Cell lines, cDNA constructs, and transfections. Ltk-cells (a murine fibroblast-like cell line; (S. Kit et al., 1967, J. Virol., 1(1): 238-240) were maintained at 37° C. and 5% CO2 in high glucose DMEM, (Celigro, Hedon, Va.) supplemented to contain 10% fetal bovine serum (Gemini, Woodland, Calif.), 2 mM glutamax I (Gibco/BRL, Gaithersburg, Md.), and penicillin/streptomycin (Celigro). cDNAs encoding human APP695 and human rab5 were inserted into the mammalian expression vector pcDNA3 (Invitrogen, Carlsbad, Calif.). Following transfection using lipofectin (manufacturer's protocol; Gibco/BRL), stable L cell lines overexpressing APP695 were selected in 400 μg/ml G418 (Gemini) and screened for expression. Transient transfections with rab5 were done using lipofectAMINE (Gibco/BRL) or fugene (Boehringer-Mannheim, Indianapolis, Ind.) according to the manufacturers' protocol.
(§2) Sandwich ELISAs. Sandwich ELISAs using the antibodies as presented in Table 1 were performed essentially as has been reported (C. Janus et al. Id.; R. Rozmahel et al., Neurobiology of Aging, 23:187-194; and P. M. Mathews et al., 2002, J. Biol. Chem., 277: 5299-5307), with modifications to detect cell-associated APP metabolites. The wells of Nunc-Immuno PIates (Nunc A/S, Roskilde, Denmark) were coated overnight at 4° C. using 20 μg/ml of C1/6.1 and the remaining protein binding sites were blocked by incubating with 1% Block Ace (Yukijirushi Milk, Sapporo Japan) in PBS (200 μl/well) for 4 hours at room temperature.
(§3) For the βCTF ELISA, a synthetic peptide was prepared, i.e., […], (SEQ ID NO:1), that contains both the JRF/AβN/25 epitope (SEQ ID NO:4) and the C1/6.1 epitope (SEQ ID NO:2), (see Table I). For the APP/total CTF ELISA, a glutathione S-transferase fusion protein containing the C-terminal 99 residues of human APP (GST-βPP672-770; (K. Islam and E. Levy, 1997, Am. J. Pathol. 151(1):265-71) was prepared. This fusion protein contains both the C1/6.1 and C2/7.1 epitopes. These standards, prepared as stock solutions, were dissolved in DMSO, stored at −70° C., and were further diluted in buffer containing 20 mM Na phosphate, 2 mM EDTA,. 400 mM NaCl, 0.2% BSA, 0.05% CHAPS, 0.4% Block Ace and 0.05% NaN3, pH 7.0 immediately, prior to use.
(§4) ELISA plates were incubated overnight at 4° C. with samples and standards. Samples, as described herein, were cell lysates prepared in 1% Triton X-100®, 140 mM NaCl, 25 mM Tris (pH 7.4), 0.5 mM EDTA, and protease inhibitors. Lysates were vortexed briefly, allowed to rest on ice for 30 minutes, and centrifuged at 6,000 rpm in an Eppendorf centrifuge. The supernatant was used for the ELISA. Following overnight binding of APP and APP metabolites to the capture antibody (C/1/6.1), the wells were washed twice with phosphate buffered saline (PBS) containing 0.5% Triton X-100®/0.05% Tween-20 followed by two washes with PBS. A solution containing 20 mM Na phosphate, 2 mM EDTA, 400 mM NaCl, and 1% BSA, pH 7.0 was then added to the wells for 1 hour at room temperature.
(§5) APP and cell-associated APP metabolites were detected by incubating for 4 hours at room temperature with horseradish peroxidase (HRP)-conjugated C2/7.1 or JRF/AβN/25 diluted in 20 mM Na phosphate, 2 mM EDTA, 400 mM NaCl, 1% BSA, pH 7.0. Thereafter, the wells were again washed twice with phosphate buffered saline (PBS) containing 0.5% Triton X-100®/0.05% Tween-20, followed by two washes with PBS. ELISA plates were developed using a color reaction (TMB Microwell Peroxidase Substrate System, Kirkegaard & Perry, Gaithersburg, MD) and the OD450 was read. ELISA signals are reported as the mean ±SE of two or more wells in femtomoles per ml relative to standard.
(§6) Preparation of cell lysates for ELISA. Cells were seeded into 6-well dishes and allowed to settle overnight. […]

[2] = tested on: APP holoprotein and all CTFs in L/APP cells; assay: APP/total CTF ELISA (C1/6.1 capture, C2/7.1 detection) on L/APP cell lysates; details: for cellular APP levels (APP/total CTF) relative to untreated control cells: 10 μg/ml for 6 hours (FIG. 10A)
Experimental: as §1, §2, §3, §4, §5, §6

[3] = tested on: APP holoprotein and all CTFs in parental L cells; assay: APP/total CTF ELISA on parental L cell lysates; details: 10 μM calpeptin 6 hours (FIG. 7B)
Experimental: as §1
Sandwich ELISAs. […]
APP and cell-associated APP metabolites were detected by incubating for 4 hours at room temperature with horseradish peroxidase (HRP)-conjugated C2/7.1 or JRF/AβN/25 diluted in 20 mM Na phosphate, 2 mM EDTA, 400 mM NaCl, 1% BSA, pH 7.0. […] ELISA plates were developed using a color reaction (TMB Microwell Peroxidase Substrate System, Kirkegaard & Perry, Gaithersburg, MD) and the OD450 was read. […]

[4] = tested on: APP holoprotein, αCTF and βCTF in L/APP cells; assay: Metabolic pulse-chase labeling and immunoprecipitation of APP and CTFs; details: for levels of αCTFs and βCTFs after 1 hour chase (C1/6.1 immunoprecipitation): 10 μM, 3 hours pretreatment plus pulse and chase (FIG. 1)
Experimental: Metabolic labeling, immunoprecipitation and Western blot analysis. To detect APP and CTFs, 5×10^5 cells were seeded onto 35-mm diameter tissue culture dishes followed by induction of human APP695 expression with 20 mM butyrate for 24 hours (P. M. Mathews et al., 1992, J. Cell. Biol., 118(5):1027-1040; P. M. Mathews et al., 2000 Mol Med., 6(10)878-891). Cultures were methionine/cysteine starved for 20 minutes, pulse-labeled for 15 minutes with 100 μCi/ml TRANS^35S-LABEL (Dupont-NEN), washed, and chased in complete medium containing 2 mM unlabeled methionine (P. M. Mathews et al., 1992, J. Cell. Biol., 118(5):1027-1040). Calpain inhibitors, as described herein, were added to the growth medium 3 hours prior to methionine/cysteine starvation and then throughout pulse-labeling and chase.
Cell lysates (prepared in 1% Triton X-100, 140 mM NaCl, 25 mM Tris pH 7.4, 0.5 mM EDTA, 10 mM methionine and protease inhibitors; (P. M. Mathews et al., 1992, J. Cell. Biol., 118(5):1027-1040; A. Beggan et al., 1996, J. Biol. Chem., 271(34):20895-20902) were subjected to immunoprecipitation with various monoclonal antibodies as described in Example 2. Immunoprecipitated proteins were sized by SDS-PAGE and labeled proteins were visualized by exposure to x-ray film and analyzed quantitatively using a Storm 840 phosphorimager (Molecular Dynamics/Amersham Biosciences, Sunnyvale, Calif. and/or by scan analysis (NIH Image).
To determine whether a particular monoclonal antibody detected APP holoprotein and/or αCTF and/or βCTF or both, L cells overexpressing human APP695 (L/APP cells) were metabolically labeled for 15 minutes, and then were chased for 1 hour (FIG. 1, lanes 1-6).
Thus, in addition to control conditions, cells were treated for 3 hours prior to, as well as during, the pulse and chase periods with the indicated calpain inhibitors (FIG. 1, lanes 7-18) to increase the levels of metabolically labeled CTFs prior to immunoprecipitation. Equal volumes of detergent lysates prepared from the pulse and chase periods were subjected to immunoprecipitation with each of the monoclonal antibodies and labeled APP species were resolved on 4-20% gradient SDS-PAGE.
The pulse-chase experiment shown in FIGS. 2A and 2B was designed to determine if C1/6.1 was able to detect other species of CTFs (e.g. the γCTF). Accordingly, L/APP cells were pulse-labeled for 15 minutes and chased for the indicated times up to 6 hours prior to immunoprecipitation of lysates with C1/6.1.

[5] = tested on: APP CTFs in L/APP cells; assay: Western blot analysis using C1/6.1; details: 10 μm calpeptin 6 hours (FIG. 5A)
Experimental: For Western blot analysis, protein concentration in cell lysates was determined (BioRad DC Protein Assay, BioRad, Rockville Center, N.Y.), and equal amounts of proteins were separated by SDS-PAGE and transferred to PVDF membrane. Membranes were incubated in C1/6.1 (2 μg/ml) overnight, washed, and incubated with HRP-conjugated goat anti-mouse IgG for 1.5 hours. Membranes were incubated in ECL substrate (Amersham, Arlington Heights, Ill.) and exposed to x-ray film.
In this rab5 overexpression experiment, L/APP cells were transiently-transfected with no DNA (FIG. 5A, lanes 1 and 2), or rab5 cDNA (FIG. 5A, lanes 3-5) and the levels of APP holoprotein and CTFs were determined by Western blot analysis using C1/6.1 (FIG. 5A).

[6] = tested on: Aβ1-40 secreted by L/APP cells; assay: Aβ1-40 ELISA of growth media; details: 10 μg/ml, 6 hour incubation (FIG. 10C)
Experimental: L/APP cells were plated at equal density and APP expression was induced. Cells were then incubated for 6 hours without treatment, or with the addition of 10 μg/ml cyclohexamide or 10 μg/ml 3-methyl adenine (3MA). APP/total CTF levels (FIG. 10A) and βCTF levels (FIG. 10B) in cell lysates were then determined by ELISA. Aβ1-40 (FIG. 10C) and Aβ1-42 (FIG. 10D) levels secreted into the growth media during this 6 hour incubation were determined by ELISA (C. Janus et al., 2000, Nature, 408(6815):979 982). Data are expressed as a percentage of, the level seen in untreated control cells for each assay.
In addition, Aβ levels in the growth media were examined from these test cells. […] Again, the reduction in Aβ generation obtained with cyclohexamide treatment is due to non-specific cytotoxicity, while the reduction in Aβ generation obtained following 3MA treatment is linked to a specific reduction in βCTF generation.

[7] = 75 μg/ml cyclohexamide 6 hours, versus control

CCCC[C@@H](C=O)NC(=O)[C@H](CC(C)C)NC(=O)OCc1ccccc1 [calpeptin]
βCTF levels ([1]; 10 μM calpeptin 6 hours): 5.4 fmol/mL
amount of βCTFs detected by ELISA ([1]; 10 μM calpeptin 6 hours, untreated 16.1 (FIG. 5B)): 26.0 fmol/mL
βCTF levels detected by ELISA ([1]; 10 μM calpeptin for 6 hours, untreated 5.8±0.3 (FIG. 4)): 10.0 ± 0.6 fmol/mL
APP/total CTF ELISA signal ([2]; 10 μM calpeptin 6 hours (FIG. 7B)): greatly increased the ELISA signal
change in APP/total CTF levels ([2]; 10 μM calpeptin 6 hours (FIG. 8B)): smaller relative increase in APP/total CTF levels
APP/total CTF ELISA signal [3]: increased the signal in the L cells, although not to a statistically significant degree
generation of α and βCTFs during the initial 1 hour of chase ([4]; 10 μM calpeptin (FIG. 2B)): substantially increased the generation of both α and βCTFs
turnover of CTFs ([4]; 10 μM calpeptin (FIG. 2B)): did not appear to reduce the turnover of CTFs
turnover of APP holoprotein ([4]; 10 μM calpeptin, chase up to 6 hours (FIG. 2A)): unchanged
levels of αCTFs and βCTFs after 1 hour chase (C1/6.1 immunoprecipitation) [4]: substantial and apparently proportionate increase in the levels of both αCTFs and βCTFs
levels of CTFs by Western blot [5]: greatly increased the levels of CTFs detected

CC(C)[C@H](NC(=O)OCc1ccccc1)C(=O)N[C@H](C=O)Cc1ccccc1 [calpain inhibitor III] (Cbz-Val-Phe-aldehyde)
levels of αCTFs and βCTFs after 1 hour chase (C1/6.1 immunoprecipitation) [4]: substantial and apparently proportionate increase in the levels of both αCTFs and βCTFs

C[C@@H]1C[C@@H]([C@H](O)CC2CC(=O)NC(=O)C2)C(=O)[C@@H](C)C1 [cyclohexamide]
reduction of βCTF levels relative to control [1]: reduced βCTF levels somewhat more
βCTF levels ([1]; 75 μg/ml cyclohexamide 6 hours): 0.6 fmol/mL
reduction of βCTF levels [1, 7]: 78%
cellular APP levels (APP/total CTF) relative to untreated control cells [2]: cyclohexamide treatment did
APP/total CTF levels ([2]; 75 μg/ml cyclohexamide 6 hours, control 608 (FIG. 8B)): 74 fmol/mL
reduction of APP/total CTF levels [2, 7]: 88%
Aβ1-40 levels in growth media relative to control [6]: reduction in Aβ1-40 levels relative to control

Cn1cnc(N)c2ncnc1-2 [3MA, 3-methyl adenine]
reduction of βCTF levels relative to control [1]: 50%
cellular APP levels (APP/total CTF) relative to untreated control cells [2]: did not reduce cellular APP levels
Aβ1-40 levels in growth media relative to control [6]: reduction in Aβ1-40 levels relative to control
